In one data set the test system is Plasmodium falciparum. Briefly: Antiplasmodial activity against chloroquine-sensitive Plasmodium falciparum 3D7 infected in human erythrocytes assessed as inhibition of parasite growth incubated for 72 hrs by DAPI staining based fluorescence analysis. The data set is classed as functional, organism-based. As to conditions: 3D7, Erythrocyte.
The next data set relates to HEK293. Briefly: Cytotoxicity against human HEK293 cells at 40 uM. The data set is classed as cell-based. As to conditions: hek293, 40 µM.
The nature of data set [1]: Cytotoxicity against human HEK293 cells assessed as cell death. As to conditions: read-out: LD50 (the source's name). The data set is classed as cell-based.

Turning to `COc1cc(OC)c2c(c1CC=C(C)C)O[C@H](c1ccccc1)C[C@H]2OC`, the IC50 in the data set with Plasmodium falciparum was 7.4 µM. Also, the Activity with HEK293 was 87%.

For the compound `CC(C)=CCC1(CC=C(C)C)C(=O)C(=O)C2=C1O[C@H](c1ccccc1)C[C@H]2O` (relative stereo), in the data set on Plasmodium falciparum, the 50% inhibitory concentration (IC50) amounted to 7 µM. This compound showed an Activity with HEK293 of 101%.

`CC(C)=CCc1cc2c(cc1O)OC[C@@]1(O)c3cc4c(cc3O[C@@H]21)OCO4`: the half-maximal inhibitory concentration (IC50) in the data set on Plasmodium falciparum was determined as 10.2 µM. The same compound came in with an Activity in the data set with HEK293 of 27%.

For the compound `C=C(C)[C@H]1Cc2c(ccc3c2O[C@@H]2C(O)Oc4cc(OC)c(OC)cc4[C@@H]2C3=O)O1` (stereo partly drawn), the IC50 with Plasmodium falciparum was 8.6 µM. The CC50 in data set [1] was found to be 10.9 µM.

With `CC(C)=CCC1(CC=C(C)C)C(=O)[C@](O)(CC=C(C)C)C(=O)C2=C1O[C@H](c1ccccc1)C[C@H]2O` (relative stereo), the IC50 with Plasmodium falciparum worked out at 5.7 µM. The compound further had an Activity in the data set with HEK293 of 34%.

On to `COc1cc(OC)c2c(c1CC=C(C)C)O[C@H](c1ccccc1)C[C@H]2O`, for which, in the data set with Plasmodium falciparum, the IC50 came to 14.5 µM.

Take `CC(C)=CCC1(CC=C(C)C)C(=O)[C@@](O)(CC=C(C)C)C(=O)C2=C1O[C@H](c1ccccc1)C[C@H]2O` (relative stereo): the IC50 in the data set with Plasmodium falciparum came out at 7.3 µM. The compound also came in with an Activity in the data set on HEK293 of 71%.

As a reminder, the IC50 is the concentration that inhibits the measured activity by half.

Source of the values: ChEMBL document CHEMBL4699462, “Prenylated Flavonoids from the Roots of Tephrosia rhodesica” (J Nat Prod, 2020).
